These results are taken from patent US11098072B2, “Alkenyl and beta-substituted phosphonates as antimicrobial agents” (The George Washington University, priority 2017, dated 2021).

In series [1] the test system is P. falciparum. As to the kind of experiment: Growth inhibition against P. falciparum. The series is classed as cell-based. The note with it: Plasmodium falciparum; for IC50: Table 6, growth inhibition, read-out: P.f. IC50.
The subject of series [2] is P. falciparum had1 mutant strain. It counts as cell-based.
Series [3] relates to HepG2 cells. In words: HepG2 cell inhibition (cytotoxicity) assay. It counts as cell-based. The settings on record: for pIC50: Homo sapiens. How it is done: For cytotoxicity assays, HepG2 cells (ATCC HB-8065) were grown in DMEM supplemented with 4 mM L-glutamine (Gibco #11966-025) with either 4.5 g/L D-glucose or 1.8 g/L galactose as carbon source. Cells were trypsinized, resuspended in the respective medium (DMEM/glutamine/glucose or DMEM/glutamine/galactose) to 4×10^5 cells/mL and 50 μL/well transferred to flat-bottom white opaque tissue culture plates (Falcon #353296) containing 50 μL/well of the respective medium with test compound. Compound concentrations were two-fold dilutions ranging from 50 μM to 0.049 μM as well as the drug-free DMSO-only control. All concentrations were tested in duplicate for each carbon source. After 24 h incubation at 5% CO2, 37° C., 10 μL/well of Celltiter-Glo reagent (Promega #G9241) was added and luminescence recorded after 20 min incubation in the dark.

A short description of series [4]: Metabolic stability in mouse liver microsomes. It counts as in vitro ADME. The settings on record: pH 7.4; mouse liver microsomes, compound 1 μM, 37° C.; read-out: Metabolic stability MLM (t1/2). The method, then:
(§1) In this protocol, the metabolic stability of compounds at 1 μM was determined in mouse liver microsomes (MLM) and mouse plasma. For microsomal stability each test compound was incubated in an aqueous reaction mixture consisting of 0.25 […], 1.2 mM NADPH, 3.3 mM MgCl2, and 100 mM potassium phosphate buffer (pH 7.4). For plasma stability each test compound was incubated in mouse plasma (VWR). After incubation at 37° C. a 50 μL aliquot of the reaction was transferred to 200 μL ice cold acetonitrile containing internal standard (Enalapril, 100 ng/mL). The quenched reaction mixtures were centrifuged at 3200 rpm for 5 min, and 100 μL of the supernatant were transferred to 96-well plate and analyzed by LC-MS/MS using an Applied Biosystems-Sciex API 4000. Analyte/internal standard peak area ratios were used to evaluate stability. […] An Amour C18 column (2.1×30 mm, 5 μm; Analytical Sales and Services, Pompton Plains, N.J.) was used for chromatographic separation. Mobile phases were 0.1% formic acid, 1 mM triethylamine in water and acetonitrile with a flow rate of 0.35 mL/min. The starting phase was 0% acetonitrile increased to 100% acetonitrile over 3 minutes. Peak areas were integrated using Analyst Software (AB Sciex, Foster City, Calif.).

Series [5] is described as follows: in vitro. It counts as in vitro ADME. The settings on record: mouse plasma, compound 1 μM, 37° C.; read-out: Plasma stability (t1/2). The method, then:
as §1

The nature of series [6]: In vivo exposure study in mice. Also on record: species or system Swiss Webster mice. The method, then:
We designed a compound exposure study to determine plasma concentration of 12a under similar conditions to the efficacy study.
Animal care and all procedures were conducted at Charles River Laboratories (Wilmington, Mass.) and performed in accordance with the National Institutes of Health Guide for the Care and Use of Laboratory Animals and approved by the institutional animal care and use committee. […] The suspension was administered to unfasted female Swiss Weber mice (n=3) at 20 mg/kg i.p. Plasma samples (10 μL) were removed at 0.25, 0.5, 1, 2, 4, 6 and 8 h and stored at −80° C. Plasma samples were added to ice cold acetonitrile containing the internal standard, glafenine, as appropriate to bring samples into the standard curve range (50-10,000 ng/ml), then centrifuged for 5 minutes at 3200 rpm and the supernatant transferred to a 96-well sample plate for analysis by liquid chromatography-tandem mass spectrometry. The MRM transitions for glafenine and 12a were m/z: 370.9>296.9 and 180.075>119.9, respectively. A Synergi 4 μm Hydro-RP column (250×4.6 mm, 80 Å) was used for chromatographic separation. Mobile phases were 0.1% formic acid in water and acetonitrile with a flow rate of 1.2 mL/min. The starting phase was 0% acetonitrile for 3 minutes, increased to 60% acetonitrile over 6 minutes. Peak areas were integrated using Analyst Software (AB Sciex, Foster City, Calif.).

In series [7] the target is T1, P. falciparum DXR (Plasmodium falciparum, UniProt Q8IKG4).
T1 sequence (Q8IKG4 73-488): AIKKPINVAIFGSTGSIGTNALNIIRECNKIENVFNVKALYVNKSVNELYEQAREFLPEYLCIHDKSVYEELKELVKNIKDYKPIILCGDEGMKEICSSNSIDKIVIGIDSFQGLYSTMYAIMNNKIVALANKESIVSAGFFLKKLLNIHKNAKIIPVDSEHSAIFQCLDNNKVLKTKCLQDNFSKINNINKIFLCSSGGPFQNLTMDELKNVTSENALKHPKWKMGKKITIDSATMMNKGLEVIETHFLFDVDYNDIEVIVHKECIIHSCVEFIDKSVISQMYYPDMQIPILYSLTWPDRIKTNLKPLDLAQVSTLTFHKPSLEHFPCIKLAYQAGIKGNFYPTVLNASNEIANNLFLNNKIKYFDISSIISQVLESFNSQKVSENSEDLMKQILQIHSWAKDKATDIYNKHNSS
In words: Inhibition of P. falciparum DXR enzyme. The series is classed as biochemical.

Series [8] concerns Mtb. As to the kind of experiment: Mtb growth inhibition (MIC99) in 7H9 and GAST-Fe media. It counts as cell-based, M. tuberculosis. The settings on record: Mycobacterium tuberculosis. How it is done: Selected analogs were tested for the growth inhibition against P. falciparum and Mtb in both rich media (7H9) and minimal media (GAST-Fe) following reported procedures.
For series [9], the target named is Mtb DXR (Mycobacterium tuberculosis, UniProt P9WNS1). In words: Inhibition of Mtb DXR enzyme. The series is classed as biochemical, M. tuberculosis. The note with it: percent remaining enzyme activity at 100 μM compound. The method, then: Phosphonic acid salts and prodrugs were evaluated as inhibitors of DXR from Mtb and P. falciparum and the results are shown in Table 6. Initially, the percent remaining enzyme activity was studied using a treatment of each compound at a single concentration of 100 μM. […] In general, the compounds display greater inhibition of DXR from P. falciparum compared with activity against the Mtb homolog.
Mtb DXR, sequence (P9WNS1 whole entry): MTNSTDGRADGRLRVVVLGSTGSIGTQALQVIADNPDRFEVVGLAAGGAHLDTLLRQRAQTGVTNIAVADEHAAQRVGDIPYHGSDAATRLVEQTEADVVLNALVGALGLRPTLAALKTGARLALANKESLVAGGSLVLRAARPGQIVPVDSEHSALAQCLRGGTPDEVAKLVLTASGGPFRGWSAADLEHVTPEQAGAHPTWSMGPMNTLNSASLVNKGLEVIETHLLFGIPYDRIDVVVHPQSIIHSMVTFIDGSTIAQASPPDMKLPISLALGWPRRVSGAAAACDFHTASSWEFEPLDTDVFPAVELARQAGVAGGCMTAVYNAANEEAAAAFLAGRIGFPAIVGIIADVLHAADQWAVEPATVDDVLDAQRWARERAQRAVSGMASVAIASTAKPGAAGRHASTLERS

For series [10], the target named is T1, P. falciparum DXR. The note with it: background; read-out: P. falciparum DXR IC50; cited from earlier work.
In series [11] the test system is P. falciparum. The settings on record: earlier work / reference drug; read-out: P. falciparum growth IC50; cited from earlier work.
The mark [12] stands for this setting: minimal media (GAST-Fe), read-out: Mtb MIC99 Gast/Fe.
Setting [13] is: rich media (7H9), read-out: Mtb MIC99 7H9.
The mark [14] stands for this setting: Table 6, N-acyl analogs, read-out: Pf Dxr IC50.

Each structure is given as a SMILES string. pIC50: −log10 of the molar value. Values joined by “and” are separate entries in the source; they are usually repeats but may differ in a detail not shown here. Equal values may be shown once. Read-outs that look alike come from different tables or passages of the source.

The term pIC50 denotes the IC50 on a negative log10 scale, so that one unit is a factor of ten. On to `O=CN(O)C/C=C/P(=O)([O-])O.[Na+]` [Compound 12a, Sodium hydrogen [(1E)-3-(N-hydroxyformamido)prop-1-en-1-yl]phosphonate], for which the pIC50 is 7.72 in series [1] (read-out: P. falciparum growth IC50); 7.72 in series [1] (read-out: Pf IC50); less than 4.30 in series [3] (HepG2, read-out: HepG2 IC50); 7.04 in [7] (read-out: P. falciparum DXR IC50). Besides, the “sensitivity in had1+HAD1-GFP strain” value in [2] (mutant supplied with wild-type copy of HAD1) is on record as “restored”. Moreover, the “resistance of had1 parasites compared with wild-type 3D7” value in series [2] (shift of IC50 curve) worked out at 3.4 fold. The “SI^Pf Selectivity Index for P. falciparum” value in [3] (HepG2 IC50/P.falciparum IC50) is reported as 2632. Further, the half-life at 1 μM is more than 1 h in series [4] and more than 2 h in series [5]. The “plasma concentration at 8 h relative to Pf IC50 of 18a in vitro” value in series [6] (after 18a 20 mg/kg i.p.) is “approximately 200 fold”. Besides, in series [6] (female, Swiss Webster, mouse, in vivo, 20 mg/kg, read-out: plasma concentration of 12a at 8 h), the concentration at 8 h is 485 ng/mL and 2.8 µM.

What is called IC50 is the concentration at which inhibition is half-maximal. In the case of `O=C(c1ccccc1)N(O)C/C=C/P(=O)([O-])O.[Na+]` [Compound 32a, Sodium hydrogen [(1E)-3-(N-hydroxy-1-phenylformamido)prop-1-en-1-yl]phosphonate], the half-inhibitory concentration (IC50) in series [1] is 0.103 µg/mL. The “resistance of had1 parasites compared with wild-type” value in series [2] (in words) is reported as “more resistant”. For the same molecule, the negative-log IC50 (pIC50) is less than 4.30 in [3] (HepG2, Table 6, cytotoxicity, read-out: HepG2 IC50); 6.96 and 6.97 in series [7] (setting [14]). The MIC99 in series [8] (setting [12]) is 25 µg/mL; in series [8] (setting [13]) it was more than 50 µg/mL. Besides, in [9], the “Mtb Dxr (% Residue)” value is listed as “(36.87) %”.

Regarding `O=C(Cc1ccccc1)N(O)C/C=C/P(=O)([O-])O.[Na+]` [Compound 32b, Sodium hydrogen [(1E)-3-(N-hydroxy-2-phenylacetamido)prop-1-en-1-yl]phosphonate], the IC50 in series [1] is 0.137 µg/mL. In addition, the MIC99 in [8] (setting [13]) is more than 100 µg/mL. The “Mtb Dxr (% Residue)” value in series [9] was “(33.6) %”. For the same molecule, the pIC50 in series [7] (setting [14]) was 6.77.

For the molecule `O=C(CCc1ccccc1)N(O)C/C=C/P(=O)([O-])O.[Na+]` [Compound 32c, Sodium hydrogen [(1E)-3-(N-hydroxy-3-phenylpropanamido)prop-1-en-1-yl]phosphonate], in series [1], the 50% inhibitory concentration (IC50) was 3.3 µg/mL. The MIC99 in series [8] (setting [12]) and in series [8] (setting [13]) was more than 100 µg/mL in each case. The “Mtb Dxr (% Residue)” value in [9] was “(62.3) %”. Besides, in series [7] (setting [14]), the negative logarithm of the IC50 (pIC50) was 5.87.

Consider `O=C(CCCc1ccccc1)N(O)C/C=C/P(=O)([O-])O.[Na+]` [Compound 32d, Sodium hydrogen [(1E)-3-(N-hydroxy-4-phenylbutanamido)prop-1-en-1-yl]phosphonate], for which, in series [1], the IC50 was 1.6 µg/mL. Besides, the MIC99 in [8] (setting [12]) and in series [8] (setting [13]) was more than 100 µg/mL in each case. The “Mtb Dxr (% Residue)” value in series [9] is reported as “(29.2) %”. Besides, in series [7] (setting [14]), the negative logarithm of the IC50 (pIC50) was 6.05.

In the case of `CC(=O)N(O)CCCP(=O)(O)O` [FR900098], in series [10], the pIC50 is 7.62.

With `C[C@@H]1CC[C@H]2[C@@H](C)C(=O)O[C@@H]3O[C@@]4(C)CC[C@@H]1[C@]32OO4` [artemisinin], the pIC50 in [11] was 7.98.
